Results as given in PubChem BioAssay (NCI).
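Growth conditions: 96-well plates. Treatment: test compound, 48 hours, 5 concentrations. Analysis: linear interpolation between bracketing concentrations; unreached endpoints set to highest concentration. Definition used: TGI = concentration required for complete inhibition of growth.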

Tests used:
Experiment in all cases: NCI anticancer screen, dose series, 48 h
786-0 renal = tested on: 786-0 renal
A498 renal = tested on: A498 renal
A549 NSCLC = tested on: A549 NSCLC
ACHN renal = tested on: ACHN renal
BT-549 breast = tested on: BT-549 breast
CAKI-1 renal = tested on: CAKI-1 renal
CCRF-CEM leukemia = tested on: CCRF-CEM leukemia
COLO 205 colon = tested on: COLO 205 colon
DU-145 prostate = tested on: DU-145 prostate
EKVX NSCLC = tested on: EKVX NSCLC
HCT-116 colon = tested on: HCT-116 colon
HCT-15 colon = tested on: HCT-15 colon
HL-60(TB) leukemia = tested on: HL-60(TB) leukemia
HOP-62 NSCLC = tested on: HOP-62 NSCLC
HOP-92 NSCLC = tested on: HOP-92 NSCLC
HS 578T breast = tested on: HS 578T breast
HT29 colon = tested on: HT29 colon
IGROV1 ovarian = tested on: IGROV1 ovarian
K-562 leukemia = tested on: K-562 leukemia
KM12 colon = tested on: KM12 colon
LOX IMVI melanoma = tested on: LOX IMVI melanoma
M14 melanoma = tested on: M14 melanoma
MALME-3M melanoma = tested on: MALME-3M melanoma
MCF7 breast = tested on: MCF7 breast
MDA-MB-231 breast = tested on: MDA-MB-231 breast
MDA-MB-435 = tested on: MDA-MB-435
MDA-N = tested on: MDA-N
MOLT-4 leukemia = tested on: MOLT-4 leukemia
NCI-H23 lung = tested on: NCI-H23 lung
NCI-H460 lung = tested on: NCI-H460 lung
NCI-H522 lung = tested on: NCI-H522 lung
NCI/ADR-RES ovarian = tested on: NCI/ADR-RES ovarian
OVCAR-3 ovarian = tested on: OVCAR-3 ovarian
OVCAR-5 ovarian = tested on: OVCAR-5 ovarian
OVCAR-8 ovarian = tested on: OVCAR-8 ovarian
PC-3 prostate = tested on: PC-3 prostate
RPMI-8226 leukemia = tested on: RPMI-8226 leukemia
RXF 393 renal = tested on: RXF 393 renal
SF-268 CNS = tested on: SF-268 CNS
SF-295 CNS = tested on: SF-295 CNS
SF-539 CNS = tested on: SF-539 CNS
SK-MEL-2 melanoma = tested on: SK-MEL-2 melanoma
SK-MEL-28 melanoma = tested on: SK-MEL-28 melanoma
SK-MEL-5 melanoma = tested on: SK-MEL-5 melanoma
SK-OV-3 ovarian = tested on: SK-OV-3 ovarian
SN12C renal = tested on: SN12C renal
SNB-19 CNS = tested on: SNB-19 CNS
SNB-75 CNS = tested on: SNB-75 CNS
SR leukemia = tested on: SR leukemia
SW-620 colon = tested on: SW-620 colon
T-47D breast = tested on: T-47D breast
TK-10 renal = tested on: TK-10 renal
U251 CNS = tested on: U251 CNS
UACC-257 melanoma = tested on: UACC-257 melanoma
UACC-62 melanoma = tested on: UACC-62 melanoma
UO-31 renal = tested on: UO-31 renal

## COc1cc(O)cc2oc(-c3ccc(O)cc3)cc(=O)c12
786-0 renal
  TGI: > 100 µM
A498 renal
  TGI: 78.3 µM
A549 NSCLC
  TGI: > 100 µM
ACHN renal
  TGI: > 100 µM
BT-549 breast
  TGI: > 100 µM
CAKI-1 renal
  TGI: > 100 µM
CCRF-CEM leukemia
  TGI: > 100 µM
COLO 205 colon
  TGI: > 100 µM
DU-145 prostate
  TGI: > 100 µM
EKVX NSCLC
  TGI: > 100 µM
HCT-116 colon
  TGI: > 100 µM
HCT-15 colon
  TGI: > 100 µM
HL-60(TB) leukemia
  TGI: > 100 µM
HOP-62 NSCLC
  TGI: > 100 µM
HOP-92 NSCLC
  TGI: > 100 µM
HS 578T breast
  TGI: > 100 µM
HT29 colon
  TGI: > 100 µM
IGROV1 ovarian
  TGI: > 100 µM
K-562 leukemia
  TGI: > 100 µM
KM12 colon
  TGI: > 100 µM
LOX IMVI melanoma
  TGI: > 100 µM
M14 melanoma
  TGI: > 100 µM
MALME-3M melanoma
  TGI: > 100 µM
MCF7 breast
  TGI: > 100 µM
MDA-MB-231 breast
  TGI: > 100 µM
MDA-MB-435
  TGI: > 100 µM
MDA-N
  TGI: > 100 µM
MOLT-4 leukemia
  TGI: > 100 µM
NCI-H23 lung
  TGI: > 100 µM
NCI-H460 lung
  TGI: > 100 µM
NCI-H522 lung
  TGI: > 100 µM
NCI/ADR-RES ovarian
  TGI: > 100 µM
OVCAR-3 ovarian
  TGI: > 100 µM
OVCAR-5 ovarian
  TGI: > 100 µM
OVCAR-8 ovarian
  TGI: > 100 µM
PC-3 prostate
  TGI: > 100 µM
RPMI-8226 leukemia
  TGI: > 100 µM
RXF 393 renal
  TGI: > 100 µM
SF-268 CNS
  TGI: > 100 µM
SF-295 CNS
  TGI: > 100 µM
SF-539 CNS
  TGI: > 100 µM
SK-MEL-2 melanoma
  TGI: > 100 µM
SK-MEL-28 melanoma
  TGI: > 100 µM
SK-MEL-5 melanoma
  TGI: > 100 µM
SK-OV-3 ovarian
  TGI: > 100 µM
SN12C renal
  TGI: > 100 µM
SNB-19 CNS
  TGI: > 100 µM
SNB-75 CNS
  TGI: 62.7 µM
SR leukemia
  TGI: > 100 µM
SW-620 colon
  TGI: > 100 µM
T-47D breast
  TGI: > 100 µM
TK-10 renal
  TGI: > 100 µM
U251 CNS
  TGI: > 100 µM
UACC-257 melanoma
  TGI: > 100 µM
UACC-62 melanoma
  TGI: > 100 µM
UO-31 renal
  TGI: > 100 µM
